{"source": "patent US20040186066A1", "about": "“Method of treatment with nelfinavir” (AGOURON PHARMACEUTICALS, INC., priority 2003, published 2004)", "key": {"[1]": {"experiment": "Example 1: phase I crossover food-effect study, single-dose pharmacokinetics of nelfinavir 250 mg tablets (total kilocalories and fat)", "type": "in vivo, human (normal healthy volunteers)", "settings": "for bioavailability of M8 higher relative to fasting, based on AUC(0-∞): M8 after 1250 mg nelfinavir", "experimental": "A phase I, randomized, open-label crossover study to evaluate the impact of total kilocalories and fat content on single-dose pharmacokinetic parameters of the nelfinavir 250 mg tablet formulation in normal healthy volunteers was performed. Healthy volunteers entered the study and received the following treatment in random order at least 1 week apart: 1) 5×250 mg nelfinavir tablets, fasted 2) 5×250 mg nelfinavir tablets (breakfast meal 1, 125 Kcal/20% fat=low cal/low fat) 3) 5×250 mg nelfinavir tablets (breakfast meal 2, 500 Kcal/20% fat=medium cal/low fat) 4) 5×250 mg nelfinavir tablets (breakfast meal 3, 1000 Kcal/50% fat=high cal/high fat). Plasma concentrations of nelfinavir and its active hydroxy-t-butylamide metabolite (M8) were measured by validated high performance liquid chromatography (HPLC) methods. Pharmacokinetic parameters were determined from plasma concentration-time data using standard methods. Nelfinavir was administered as five 250-mg tablets with 240 mL of water. All subjects received a standardized snack the evening they were admitted to the in-patient facility. For the fasting evaluation, subjects were required to complete an overnight fast of at least 10 hours prior to dosing in the morning. For the fed pharmacokinetic evaluations, subjects were required to complete an overnight fast of at least 10 hours, prior to receiving the protocol-specific standardized breakfast meal (that is, Meal 1, Meal 2, or Meal 3). Subjects were given 30 minutes to complete their standardized breakfast meal. Dosing was performed in the morning, immediately following the subject's completion of the standardized breakfast meal and after the subject's pre-dose pharmacokinetic specimen had been collected. Subjects could not ingest water 1 hour prior to or 1 hour after dosing. A standardized lunch was given at least 4 hours after the morning dose and a standardized dinner was given at least 10 hours after the morning dose. For pharmacokinetic sampling, blood samples, 5 mL each, were collected into heparinized vacuum tubes (green top tubes) via an indwelling catheter or direct venipuncture. The actual time of each collection was recorded on the source document. The timing of each sample collection was as follows: predose and at 0.5, 1, 2, 3, 4, 6, 8, and 12 hours postdose on Days 1, 8,15, and 22. Pharmacokinetic parameter values were calculated using WinNonlin Pro Version 2.1. Individual nelfinavir plasma concentrations were used to predict steady-state plasma concentrations during BID administration with meals of various Kcal content. WinNonlin Pro Version 3.2 noncompartmental superposition was used for this simulation. Predicted steady-state Cmax and Cmin values were compared."}, "[2]": {"experiment": "Example 2: phase 1 crossover 3×3 study, fixed kilocalorie meal at 20% and 50% fat, single-dose pharmacokinetics of nelfinavir 250 mg tablets", "type": "in vivo, human (normal, healthy volunteers)", "experimental": "A study was conducted as a phase 1, randomized, open-label, crossover 3×3 study, designed to evaluate the impact of a fixed kilocalorie meal at 20% and 50% fat content on single-dose pharmacokinetic parameters of the nelfinavir 250 mg tablet formulation in normal, healthy volunteers. Subjects were dosed with 1250 mg of nelfinavir 3 times at one-week intervals and 24-hour PK profiles were collected following each of the doses. Each subject was assigned three meals with different fat contents prior to dosing (fasting, 500kcal with 20% fat, 500 kcal with 50% fat) using a Latin square design. Twenty-four subjects entered the study and twenty-two subjects completed it. Each subject received the following treatment in random order on Days 1, 8 and 15: 5×250 mg nelfinavir tablets with fasting; 5×250 mg nelfinavir tablets, with a meal comprising 500Kcal/20% fat; and 5×250 mg nelfinavir tablets with a meal having 500 Kcal/50% fat. The moderate calorie/low fat meal consisted of 500 Kcal with 20% fat (11.3 grams of fat). The moderate calorie/high fat meal consisted of 500 Kcal with 50% fat (27.8 grams of fat). Subjects were administered nelfinavir 1250-mg (five 250-mg tablets) on the morning of the pharmacokinetic evaluations. The nelfinavir terminal half-life (t½) in plasma is typically 3.5 to 5 hours. […] Subjects participated on an outpatient basis; however, subjects were admitted to the in-patient facility the evening prior to each PK evaluation and remained in the in-patient facility for approximately 16 hours post-dosing. The subjects returned the next morning (8 hours later) for their last 24 hr. pharmacokinetic blood draw. All pharmacokinetic evaluations were performed in the in-patient facility. Blood samples were collected and analyzed for plasma concentrations of nelfinavir and M8. For the fasting evaluation, subjects were required to complete an overnight fast of at least 10 hours prior to dosing in the morning. For the fed PK evaluations, subjects were required to complete an overnight fast of at least 10 hours, prior to receiving the protocol-specific standardized breakfast meal. Subjects were given 30 minutes to complete their standardized breakfast meal. Dosing was performed in the morning, immediately following the subject's completion of the standardized breakfast meal and after the subject's predose PK specimen had been collected. Subjects could not ingest water 1 hour prior to or 1 hour after dosing. A standardized lunch was given at least 4 hours after the morning dose and a standardized dinner was given at least 10 hours after the morning dose. Actual sampling times were used for all data evaluation. Mean Cmax and AUC values were calculated as the antilogs of least-squares mean log-transformed values (analogous to geometric means). Ratios and confidence intervals for Cmax and AUC values are also based on log-transformed values. Mean values for all other pharmacokinetic parameters are least-squares means. Ratios and confidence intervals for these parameters are based on untransformed values. Blood samples, 5 mL each, were collected as in Example 1. The timing of each sample collection was as follows: Predose and at 0.5, 1, 2, 3, 4, 6, 8, 12, 16 and 24 hours postdose on Days 1, 8, and 15. All blood samples were kept at […] (using either wet ice or cryoblock) until centrifugation. Blood samples were centrifuged within 1 hour of collection, at 3000 rpm (approximately 2619×g) for 15 minutes, to separate the plasma. The plasma samples were split evenly into 2 aliquots and stored in appropriately labeled polypropylene transport tubes. Plasma was stored frozen at […] or lower until analysis. Pharmacokinetic parameter values were calculated from plasma nelfinavir and M8 concentration-time data using standard noncompartmental pharmacokinetic methods as in Example 1. Plasma concentrations of nelfinavir and M8 were measured by validated high-performance liquid chromatography (HPLC) methods. […]"}, "[3]": {"settings": "with increasing food intake; cited from earlier work"}, "[4]": {"settings": "M8 after 1250-mg nelfinavir oral dose, fasting (reference)"}, "[5]": {"settings": "M8 after 1250-mg nelfinavir with high calorie/high fat/high protein meal"}, "[6]": {"settings": "M8 after 1250-mg nelfinavir with low calorie/low fat/low protein meal"}, "[7]": {"settings": "M8 after 1250-mg nelfinavir with moderate calorie/low fat/moderate protein meal"}, "[8]": {"settings": "high calorie/high fat/high protein meal vs fasting"}, "[9]": {"settings": "low calorie/low fat/low protein meal vs fasting"}, "[10]": {"settings": "moderate calorie/low fat/moderate protein meal vs fasting"}}, "note": "Marks after values point to notes of the source that are not given here.", "data": [{"smiles": "Cc1c(O)cccc1C(=O)N[C@@H](CSc1ccccc1)[C@H](O)CN1C[C@H]2CCCC[C@H]2C[C@H]1C(=O)NC(C)(C)CO", "note": "[M8]", "values": [{"measurement": "M8 AUCinf/NFV AUCinf (%)", "setting": "[1]; 1250 mg nelfinavir single oral dose, fasting", "result": 26.5, "unit": "%"}, {"measurement": "bioavailability of M8 higher relative to fasting, based on AUC(0-∞)", "setting": "[1]; high calorie meal (1000 Kcal)", "result": 4.1, "unit": "fold"}, {"measurement": "bioavailability of M8 higher relative to fasting, based on AUC(0-∞)", "setting": "[1]; low calorie meal (125 Kcal)", "result": 1.3, "unit": "fold"}, {"measurement": "bioavailability of M8 higher relative to fasting, based on AUC(0-∞)", "setting": "[1]; moderate calorie meal (500 Kcal)", "result": 1.8, "unit": "fold"}, {"measurement": "M8 AUC(0-tlqc), least-squares mean", "setting": "[1]; [4]", "result": "0.655^a μg · hr/mL"}, {"measurement": "M8 AUC(0-∞), least-squares mean", "setting": "[1]; [4]", "result": "2.81^c μg · hr/mL"}, {"measurement": "M8 t1/2, least-squares mean", "setting": "[1]; [4]", "result": "2.68^c hr"}, {"measurement": "M8 tmax, least-squares mean", "setting": "[1]; [4]", "result": "3.45^b hr"}, {"measurement": "M8 AUC(0-tlqc), least-squares mean", "setting": "[1]; [5]", "result": "7.58^g μg · hr/mL"}, {"measurement": "M8 AUC(0-∞), least-squares mean", "setting": "[1]; [5]", "result": "11.5^a μg · hr/mL"}, {"measurement": "M8 Cmax, least-squares mean", "setting": "[1]; [5]", "result": "1.28^g μg/mL"}, {"measurement": "M8 t1/2, least-squares mean", "setting": "[1]; [5]", "result": "3.90^a hr"}, {"measurement": "M8 tmax, least-squares mean", "setting": "[1]; [5]", "result": "5.01^a hr"}, {"measurement": "M8 AUC(0-tlqc), least-squares mean", "setting": "[1]; [6]", "result": "2.01^d μg · hr/mL"}, {"measurement": "M8 AUC(0-∞), least-squares mean", "setting": "[1]; [6]", "result": "3.66^f μg · hr/mL"}, {"measurement": "M8 Cmax, least-squares mean", "setting": "[1]; [6]", "result": "0.533^d μg/mL"}, {"measurement": "M8 t1/2, least-squares mean", "setting": "[1]; [6]", "result": "2.40^f hr"}, {"measurement": "M8 tmax, least-squares mean", "setting": "[1]; [6]", "result": "3.88^e hr"}, {"measurement": "M8 AUC(0-tlqc), least-squares mean", "setting": "[1]; [7]", "result": "3.46^a μg · hr/mL"}, {"measurement": "M8 AUC(0-∞), least-squares mean", "setting": "[1]; [7]", "result": "5.11^e μg · hr/mL"}, {"measurement": "M8 Cmax, least-squares mean", "setting": "[1]; [7]", "result": "0.693^a μg/mL"}, {"measurement": "M8 t1/2, least-squares mean", "setting": "[1]; [7]", "result": "2.96^e hr"}, {"measurement": "M8 tmax, least-squares mean", "setting": "[1]; [7]", "result": "4.49^a hr"}, {"measurement": "M8 Cmax, least-squares mean", "setting": "[1]; M8 in plasma after 1250-mg nelfinavir oral dose, fasting (reference)", "result": "0.228^a μg/mL"}, {"measurement": "M8 AUC/nelfinavir AUC", "setting": "[1]; fed state", "result": "15-21%"}, {"measurement": "M8 AUCinf/NFV AUCinf (%)", "setting": "[1]; food intake 125 kcal/20% fat", "result": 15.8, "unit": "%"}, {"measurement": "M8 AUCinf/NFV AUCinf (%)", "setting": "[1]; food intake 500 kcal/20% fat", "result": 15.3, "unit": "%"}, {"measurement": "M8 AUCinf/NFV AUCinf (%)", "setting": "[1]; food intake 1000 kcal/50% fat", "result": 20.8, "unit": "%"}, {"measurement": "M8 AUC(0-tlqc) ratio (100% × test/reference)", "setting": "[1]; [8]", "result": 1157, "unit": "%"}, {"measurement": "M8 AUC(0-∞) ratio (100% × test/reference)", "setting": "[1]; [8]", "result": 408, "unit": "%"}, {"measurement": "M8 Cmax ratio (100% × test/reference)", "setting": "[1]; [8]", "result": 562, "unit": "%"}, {"measurement": "M8 t1/2 ratio (100% × test/reference)", "setting": "[1]; [8]", "result": 145, "unit": "%"}, {"measurement": "M8 tmax ratio (100% × test/reference)", "setting": "[1]; [8]", "result": 145, "unit": "%"}, {"measurement": "M8 AUC(0-tlqc) ratio (100% × test/reference)", "setting": "[1]; [9]", "result": 343, "unit": "%"}, {"measurement": "M8 AUC(0-∞) ratio (100% × test/reference)", "setting": "[1]; [9]", "result": 130, "unit": "%"}, {"measurement": "M8 Cmax ratio (100% × test/reference)", "setting": "[1]; [9]", "result": 234, "unit": "%"}, {"measurement": "M8 t1/2 ratio (100% × test/reference)", "setting": "[1]; [9]", "result": 89.4, "unit": "%"}, {"measurement": "M8 tmax ratio (100% × test/reference)", "setting": "[1]; [9]", "result": 113, "unit": "%"}, {"measurement": "M8 AUC(0-tlqc) ratio (100% × test/reference)", "setting": "[1]; [10]", "result": 529, "unit": "%"}, {"measurement": "M8 AUC(0-∞) ratio (100% × test/reference)", "setting": "[1]; [10]", "result": 182, "unit": "%"}, {"measurement": "M8 Cmax ratio (100% × test/reference)", "setting": "[1]; [10]", "result": 304, "unit": "%"}, {"measurement": "M8 t1/2 ratio (100% × test/reference)", "setting": "[1]; [10]", "result": 110, "unit": "%"}, {"measurement": "M8 tmax ratio (100% × test/reference)", "setting": "[1]; [10]", "result": 130, "unit": "%"}, {"measurement": "M8 AUC∞/Nelfinavir AUC∞(%)", "setting": "[2]; 1250 mg nelfinavir single dose, fasting", "result": 8.6, "unit": "%"}, {"measurement": "M8 AUC∞/Nelfinavir AUC∞(%)", "setting": "[2]; Kcal/Fat % 500/20%", "result": 8.7, "unit": "%"}, {"measurement": "M8 AUC∞/Nelfinavir AUC∞(%)", "setting": "[2]; Kcal/Fat % 500/50%", "result": 11.4, "unit": "%"}, {"measurement": "mean M8 AUC(0-∞) higher relative to fasting subjects", "setting": "[2]; test meal containing 20% fat", "result": 3, "unit": "fold"}, {"measurement": "mean M8 AUC(0-∞) higher relative to fasting subjects", "setting": "[2]; test meal containing 50% fat", "result": 6.8, "unit": "fold"}, {"measurement": "percentage of M8 relative to nelfinavir", "setting": "[2]; remained the same with increasing fat intake", "result": "around 10%"}, {"measurement": "M8 concentrations relative to nelfinavir", "setting": "[3]", "result": "15-20%"}]}]}
